Measured values as given in ChEMBL document CHEMBL4813985, “Lead optimization generates selenium-containing miconazole CYP51 inhibitors with improved pharmacological profile for the treatment of fungal infections” (Eur J Med Chem, 2021).
≈ marks a conversion by molar mass, not a printed value. Calls of active or inactive are those of the source. The calls are words filed in the database; no cut-off is given here.

Experiments:
[1] = system: Pichia kudriavzevii; assay: Antifungal activity against Candida krusei AS2.1045 measured after 24 hrs by broth microdilution assay; format: functional
[2] = system: MDA-MB-231; assay: Cytotoxicity against human MDA-MB-231 cells assessed as reduction in cell viability incubated for 96 hrs by MTT assay; conditions: MDA-MB-231, 96 h
[3] = Hemolytic activity in rabbit RBC assessed as hemolysis ratio at 1 ug/ml measured after 3 hrs by microplate reader assay relative to control; format: ADME, cell-based, Oryctolagus cuniculus, Erythrocyte; conditions: rabbit red blood cells (erythrocytes), at 1 µg/mL, read-out: Activity
[4] = biological target: T1, Lanosterol 14-alpha demethylase (Candida albicans (strain SC5314 / ATCC MYA-2876) (Yeast), UniProt P10613); assay: Inhibition of CYP51 in Candida albicans ATCC SC5314 assessed as ergosterol level at 0.03125 ug/ml after 16 hrs by GC-MS analysis (reference value: 98.3%); design: scale not given: the % may be the effect or the level left; conditions: candida albicans sc5314, 16 h, at 0.03125 µg/mL
[5] = biological target: T1, Lanosterol 14-alpha demethylase; assay: Inhibition of CYP51 in Candida albicans ATCC SC5314 assessed as lanosterol level at 0.03125 ug/ml after 16 hrs by GC-MS analysis (reference value: 1.7%); design: scale not given: the % may be the effect or the level left; conditions: candida albicans sc5314, 16 h, at 0.03125 µg/mL
[6] = biological target: T1, Lanosterol 14-alpha demethylase; assay: Inhibition of CYP51 in Candida albicans ATCC SC5314 assessed as lanosterol level at 8 ug/ml after 16 hrs by GC-MS analysis (reference value: 1.7%); design: scale not given: the % may be the effect or the level left; conditions: candida albicans sc5314, 16 h, at 8 µg/mL
[7] = biological target: T1, Lanosterol 14-alpha demethylase; assay: Inhibition of CYP51 in Candida albicans ATCC SC5314 assessed as Eburicol level at 0.5 ug/ml after 16 hrs by GC-MS analysis (reference value: 0%); design: scale not given: the % may be the effect or the level left; conditions: candida albicans sc5314, 16 h, at 0.5 µg/mL
[8] = system: Candida albicans; assay: Anti-biofilm activity in Candida albicans CPCC400616 assessed as inhibition of biofilm formation incubated for 24 hrs with 1.5 hrs precultured fungal suspension by XTT assay; format: functional
[9] = system: Erythrocyte; assay: Hemolytic activity in rabbit RBC measured after 3 hrs by microplate reader assay; format: ADME, cell-based, Oryctolagus cuniculus
[10] = system: Candida albicans; assay: Ratio of MFC for Candida albicans CPCC400616 incubated for 48 hrs followed by culturing on PDA plate for 24 hrs to MIC for Candida albicans CPCC400616 measured after 24 hrs; format: functional
[11] = system: Candida albicans; assay: Fungicidal activity against Candida albicans CPCC400616 at 2 ug/ml incubated for 24 hrs and measured after 24 hrs culturing on PDA plate by time-kill kinetics analysis; format: functional, organism-based; conditions: dose 2.0 µg/ml, time 48.0 hrs
[12] = system: Candida albicans; assay: Anti-biofilm activity in Candida albicans CPCC400616 assessed as inhibition of biofilm formation at 32 ug/ml incubated for 24 hrs with 3 hrs precultured fungal suspension by XTT assay relative to control; format: functional
[13] = system: Candida albicans; assay: Antifungal activity against fluconazole-resistant Candida albicans CaR assessed as inhibition of microbial growth after 24 hrs by broth microdilution method; format: functional
[14] = system: Candida albicans; assay: Antifungal activity against fluconazole-resistant Candida albicans 17# assessed as inhibition of microbial growth after 24 hrs by broth microdilution method; format: functional
[15] = system: Candida albicans; assay: Antifungal activity against fluconazole-resistant Candida albicans 632 assessed as inhibition of microbial growth after 24 hrs by broth microdilution method; format: functional
[16] = system: Candida albicans; assay: Antifungal activity against fluconazole-resistant Candida albicans 901 assessed as inhibition of microbial growth after 24 hrs by broth microdilution method; format: functional
[17] = system: Candida albicans; assay: Antifungal activity against fluconazole-resistant Candida albicans 904 assessed as inhibition of microbial growth after 24 hrs by broth microdilution method; format: functional
[18] = system: MCF-10A; assay: Cytotoxicity against human MCF-10A cells assessed as reduction in cell viability incubated for 96 hrs by MTT assay; format: cell-based; conditions: read-out: IC50
[19] = system: Candida albicans; assay: Antifungal activity against Candida albicans ATCC SC5314 infected in mouse model of candidiasis assessed as reduction in kidney fungal burden at 0.6 mg/kg/day, ip dosed at 2 hrs post infection and dosed for 4 days; format: functional, organism-based; conditions: time 4.0 day
[20] = system: Candida albicans; assay: Antifungal activity against Candida albicans ATCC SC5314 infected in mouse model of candidiasis assessed as reduction in kidney fungal burden at 0.4 mg/kg/day, ip dosed at 2 hrs post infection and dosed for 4 days; format: functional, organism-based; conditions: time 4.0 day
[21] = AUC (0 to t) in Sprague-Dawley rat at 2 mg/kg, iv by LC-MS analysis; format: ADME, organism-based; design: dose 2 mg/kg; conditions: in vivo
[22] = AUC (0 to t) in Sprague-Dawley rat at 5 mg/kg, po by LC-MS analysis; format: ADME, organism-based; design: dose 5 mg/kg; conditions: in vivo
[23] = Half life in Sprague-Dawley rat at 2 mg/kg, iv by LC-MS analysis; format: ADME, organism-based; conditions: in vivo
[24] = Half life in Sprague-Dawley rat at 5 mg/kg, po by LC-MS analysis; format: ADME, organism-based; conditions: in vivo
[25] = Oral bioavailability in Sprague-Dawley rat at 5 mg/kg by LC-MS analysis; format: ADME, organism-based; conditions: in vivo
[26] = Selectivity ratio of IC50 for human HL-60 cells to MIC for Candida albicans CPCC400616; format: toxicity
[27] = Selectivity ratio of IC50 for human MDA-MB-231 cells to MIC for Candida albicans CPCC400616; format: toxicity
[28] = Selectivity ratio of IC50 for human PC-3 cells to MIC for Candida albicans CPCC400616; format: toxicity
[29] = Selectivity ratio of IC50 for human MCF-10A cells to MIC for Candida albicans CPCC400616; format: toxicity
[30] = system: Candida albicans; assay: Potency index, ratio of fluconazole MIC to test compound MIC for Candida albicans CPCC400616 measured after 24 hrs by broth microdilution assay; format: functional
[31] = system: Candida albicans; assay: Fungicidal activity against Candida albicans CPCC400616 at 2 ug/ml incubated within 8 hrs and measured after 24 hrs culturing on PDA plate by time-kill kinetics analysis (reference value: 5 log10CFU/ml); format: functional; conditions: dose 2 µg/ml; time 32 hrs
[32] = system: Candida albicans; assay: Fungicidal activity against Candida albicans CPCC400616 incubated for 24 hrs and measured after 24 hrs culturing on PDA plate by time-kill kinetics analysis; format: functional, organism-based; conditions: dose 0.25-2 µg/ml, time 48.0 hrs
[33] = system: Candida albicans; assay: Anti-biofilm activity in Candida albicans CPCC400616 assessed as inhibition of biofilm formation at 16 ug/ml incubated for 24 hrs with 3 hrs precultured fungal suspension by XTT assay relative to control; format: functional

T1 sequence (P10613 whole entry): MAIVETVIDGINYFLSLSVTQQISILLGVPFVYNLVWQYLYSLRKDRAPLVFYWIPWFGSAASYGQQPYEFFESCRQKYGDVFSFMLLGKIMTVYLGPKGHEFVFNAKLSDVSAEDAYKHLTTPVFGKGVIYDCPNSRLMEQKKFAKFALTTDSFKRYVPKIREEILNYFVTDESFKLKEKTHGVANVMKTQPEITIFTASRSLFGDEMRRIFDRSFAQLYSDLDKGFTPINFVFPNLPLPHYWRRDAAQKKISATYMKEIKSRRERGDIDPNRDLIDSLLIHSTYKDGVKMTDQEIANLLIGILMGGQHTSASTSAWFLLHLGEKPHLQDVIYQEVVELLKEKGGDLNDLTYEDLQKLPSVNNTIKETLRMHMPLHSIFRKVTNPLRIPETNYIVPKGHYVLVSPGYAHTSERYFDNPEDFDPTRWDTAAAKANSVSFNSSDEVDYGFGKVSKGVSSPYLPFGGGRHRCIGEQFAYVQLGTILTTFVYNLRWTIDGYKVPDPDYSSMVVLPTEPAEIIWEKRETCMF

**Q.** For `Clc1ccc(COC(Cn2ccnc2)c2ccc(Cl)cc2Cl)c(Cl)c1` (stereo not drawn) [MICONAZOLE], which MIC [1] is on record?
**A.** 0.5 µg/mL (≈ 1.2 µM)

**Q.** What about the IC50 [2] of the same compound?
**A.** 17 µM

**Q.** And the hemolysis at 3 h, 1 ug/ml [3]?
**A.** 0.16%

**Q.** And the Activity [4]?
**A.** 12.2%

**Q.** What about the Activity [5] of the same compound?
**A.** 10%

**Q.** And the Activity [6]?
**A.** 7.4%

**Q.** And the Activity [7]?
**A.** 75.1%

**Q.** What about the MIC50 [8] of the same compound?
**A.** 16 µg/mL (≈ 38.4 µM)

**Q.** And the MIC80 [8]?
**A.** 128 µg/mL (≈ 308 µM)

**Q.** What about the MHC [9] of the same compound?
**A.** 8 µg/mL

**Q.** And the Ratio [10]?
**A.** 8

**Q.** And the Activity [11]?
**A.** Active

**Q.** And the inhibition at 32 µg/mL [12]?
**A.** 50%

**Q.** With `Fc1ccc([Se]C(Cn2ccnc2)c2ccc(F)cc2F)cc1` (stereo not drawn) as the compound, how does the MIC [1] read?
**A.** 0.5 µg/mL (≈ 1.31 µM)

**Q.** And the MIC [13]?
**A.** 1 µg/mL

**Q.** And the MIC [14]?
**A.** 0.06 µg/mL

**Q.** What about the MIC [15] of the same compound?
**A.** 0.5 µg/mL

**Q.** And the MIC [16]?
**A.** 0.5 µg/mL

**Q.** What about the MIC [17] of the same compound?
**A.** 0.06 µg/mL

**Q.** What about the IC50 [2] of the same compound?
**A.** 39.5 µM

**Q.** What about the IC50 [18] of the same compound?
**A.** 59.4 µM

**Q.** And the hemolysis at 3 h, 1 ug/ml [3]?
**A.** 0%

**Q.** What about the Activity [4] of the same compound?
**A.** 8.7%

**Q.** What about the Activity [5] of the same compound?
**A.** 4.1%

**Q.** And the Activity [6]?
**A.** 5.7%

**Q.** And the Activity [7]?
**A.** 75.1%

**Q.** And the MIC50 [8]?
**A.** 4 µg/mL (≈ 10.5 µM)

**Q.** What about the MIC80 [8] of the same compound?
**A.** 8 µg/mL (≈ 21 µM)

**Q.** What about the Activity [19] of the same compound?
**A.** Active

**Q.** What about the Activity [20] of the same compound?
**A.** Active

**Q.** What about the AUC(0-t) [21] of the same compound?
**A.** 2250 ng·h/mL

**Q.** What about the AUC(0-t) [22] of the same compound?
**A.** 1260 ng·h/mL

**Q.** And the half-life [23]?
**A.** 1.89 h

**Q.** What about the half-life [24] of the same compound?
**A.** 1.93 h

**Q.** What about the bioavailability [25] of the same compound?
**A.** 22.3%

**Q.** And the selectivity ratio [26]?
**A.** 38

**Q.** And the selectivity ratio [27]?
**A.** 38

**Q.** And the selectivity ratio [28]?
**A.** 38

**Q.** What about the selectivity ratio [29] of the same compound?
**A.** 38

**Q.** What about the Ratio [30] of the same compound?
**A.** 8

**Q.** And the Activity [31]?
**A.** 2 log10CFU/ml

**Q.** What about the Activity [32] of the same compound?
**A.** Dose-Dependent Effect

**Q.** What about the inhibition at 16 µg/mL [33] of the same compound?
**A.** 80%
